Reference: ChEMBL document CHEMBL1148235, “Amidines as amide bond replacements in VLA-4 antagonists” (Bioorg Med Chem Lett, 2004)

Key:
[1] = Partition coefficient (logD); assay type: physicochemical; conditions: octanol/water
[2] = Inhibitory activity of compound against very late antigen 4 using VCAM-Ig ligand; set-up: species or system Rattus norvegicus
Integrin alpha-4/beta-7 = molecular target: T1, Integrin alpha-4/beta-7 (Homo sapiens, UniProt P13612+P26010); assay: Inhibitory activity of compound against alpha4-beta7 integrin using MAdCAM-Ig ligand; assay type: protein-complex assay
T1 sequence (P13612 whole entry): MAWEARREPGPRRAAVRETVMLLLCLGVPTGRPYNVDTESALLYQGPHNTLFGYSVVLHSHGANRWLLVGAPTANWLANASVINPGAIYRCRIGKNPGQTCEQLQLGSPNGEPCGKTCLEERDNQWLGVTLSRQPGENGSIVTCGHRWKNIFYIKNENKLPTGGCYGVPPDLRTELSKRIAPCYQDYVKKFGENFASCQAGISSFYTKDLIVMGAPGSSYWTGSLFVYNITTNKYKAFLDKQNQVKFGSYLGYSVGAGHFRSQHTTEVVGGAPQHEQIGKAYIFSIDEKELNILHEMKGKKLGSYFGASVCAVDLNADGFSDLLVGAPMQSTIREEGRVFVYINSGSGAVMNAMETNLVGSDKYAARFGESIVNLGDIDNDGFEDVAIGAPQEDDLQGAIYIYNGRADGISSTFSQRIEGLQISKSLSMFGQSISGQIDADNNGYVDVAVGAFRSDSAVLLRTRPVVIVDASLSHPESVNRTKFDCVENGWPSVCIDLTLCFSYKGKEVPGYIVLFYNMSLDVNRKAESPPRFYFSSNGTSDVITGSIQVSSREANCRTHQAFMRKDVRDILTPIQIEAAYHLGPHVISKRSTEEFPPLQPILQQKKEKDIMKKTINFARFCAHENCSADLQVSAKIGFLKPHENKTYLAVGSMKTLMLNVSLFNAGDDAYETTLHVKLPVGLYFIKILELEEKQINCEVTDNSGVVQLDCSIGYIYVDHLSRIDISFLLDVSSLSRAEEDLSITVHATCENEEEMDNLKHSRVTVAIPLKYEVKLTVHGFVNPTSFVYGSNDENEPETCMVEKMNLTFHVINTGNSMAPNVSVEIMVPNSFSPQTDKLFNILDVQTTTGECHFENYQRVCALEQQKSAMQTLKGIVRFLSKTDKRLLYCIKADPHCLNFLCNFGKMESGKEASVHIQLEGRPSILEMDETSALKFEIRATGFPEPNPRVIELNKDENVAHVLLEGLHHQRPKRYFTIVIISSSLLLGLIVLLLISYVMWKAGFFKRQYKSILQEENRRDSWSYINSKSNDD
T1 sequence (P26010 whole entry): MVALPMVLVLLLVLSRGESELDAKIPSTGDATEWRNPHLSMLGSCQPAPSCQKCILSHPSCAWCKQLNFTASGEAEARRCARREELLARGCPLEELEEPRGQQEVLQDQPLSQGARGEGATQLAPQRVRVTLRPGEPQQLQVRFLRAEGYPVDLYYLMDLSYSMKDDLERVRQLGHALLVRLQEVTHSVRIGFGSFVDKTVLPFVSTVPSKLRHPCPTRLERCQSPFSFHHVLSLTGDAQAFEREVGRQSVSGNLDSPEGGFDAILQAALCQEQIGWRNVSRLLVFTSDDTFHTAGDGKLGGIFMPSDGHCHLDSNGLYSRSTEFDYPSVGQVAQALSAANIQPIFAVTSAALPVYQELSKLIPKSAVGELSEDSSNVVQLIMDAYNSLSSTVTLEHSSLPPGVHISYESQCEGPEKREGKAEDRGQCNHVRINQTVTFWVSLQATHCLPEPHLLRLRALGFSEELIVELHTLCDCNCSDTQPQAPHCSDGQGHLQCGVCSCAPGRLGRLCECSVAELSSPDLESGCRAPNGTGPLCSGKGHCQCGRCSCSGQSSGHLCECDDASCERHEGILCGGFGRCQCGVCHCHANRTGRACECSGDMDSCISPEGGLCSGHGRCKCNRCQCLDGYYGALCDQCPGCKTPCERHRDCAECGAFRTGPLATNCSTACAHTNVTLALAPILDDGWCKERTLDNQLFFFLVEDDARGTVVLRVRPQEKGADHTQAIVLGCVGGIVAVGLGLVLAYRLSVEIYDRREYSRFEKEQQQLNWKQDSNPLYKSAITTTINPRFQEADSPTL

[3] = Dissociation constant was evaluated; assay type: physicochemical
[4] = Bioavailability in rat (dose 1 mg/kg i.v. and 2 mg/kg p.o.); assay type: ADME, organism-based; conditions: in vivo, po
[5] = Plasma clearance of compound in rats was evaluated; assay type: ADME, organism-based; conditions: rat, read-out: Clp
[6] = molecular target: Integrin alpha-4/beta-1 (Homo sapiens) (UniProt P05556+P13612); assay: Inhibition of VCAM-Ig binding to very late activating antigen-4 (VLA-4) at 10 uM; assay type: protein-complex assay

logD [1]	IC50 [2] [nM]	IC50 (Integrin alpha-4/beta-7) [nM]	pKa [3]	bioavailability [4] [%]	clearance [5] [mL/min/kg]	inhibition [6] [%]	Compound
2.3	0.14	98	–	–	–	–	COc1cccc(OC)c1-c1ccc(C[C@H](/N=C(\NO)[C@@H]2CCN2S(=O)(=O)c2ccccc2)C(=O)O)cc1
–	350	–	–	–	–	–	COc1cccc(OC)c1-c1ccc(C[C@@H](C(=O)O)N(C)C(=O)[C@@H]2CCN2S(=O)(=O)c2cc(Cl)cc(Cl)c2)cc1
2.4	0.12	40	10.5	0.7	81	–	CN/C(=N\[C@@H](Cc1ccc(-c2c(OC)cccc2OC)cc1)C(=O)O)[C@@H]1CCN1S(=O)(=O)c1ccccc1
4.1	0.05	16	–	0.3	90	–	COc1cccc(OC)c1-c1ccc(C[C@H](/N=C(\N)[C@@H]2CCN2S(=O)(=O)c2cc(Cl)cc(Cl)c2)C(=O)O)cc1
–	140	8400	–	–	–	–	COc1cccc(OC)c1-c1ccc(C[C@H](NC[C@@H]2CCCN2S(=O)(=O)c2cc(Cl)cc(Cl)c2)C(=O)O)cc1
2.5	0.09	4.1	-2	3	93	–	COc1cccc(OC)c1-c1ccc(C[C@H](/N=C(\NC#N)[C@@H]2CCN2S(=O)(=O)c2ccccc2)C(=O)O)cc1
1.9	0.17	78	–	–	–	–	COc1cccc(OC)c1-c1ccc(C[C@H](/N=C(\NCC(=O)O)[C@@H]2CCN2S(=O)(=O)c2ccccc2)C(=O)O)cc1
2.6	0.1	78	–	1.4	107	–	COc1cccc(OC)c1-c1ccc(C[C@H](NC(=O)[C@@H]2CCN2S(=O)(=O)c2ccccc2)C(=O)O)cc1
–	15	3000	–	–	–	–	COc1cccc(OC)c1-c1ccc(C[C@H](OC(=O)[C@@H]2CCN2S(=O)(=O)c2cc(Cl)cc(Cl)c2)C(=O)O)cc1
2.8	0.17	35	< 4	9.3	79	–	CON/C(=N\[C@@H](Cc1ccc(-c2c(OC)cccc2OC)cc1)C(=O)O)[C@@H]1CCN1S(=O)(=O)c1ccccc1
2.4	0.07	2.2	-2	1.6	103	–	COc1cccc(OC)c1-c1ccc(C[C@H](/N=C(\NS(C)(=O)=O)[C@@H]2CCN2S(=O)(=O)c2ccccc2)C(=O)O)cc1
–	0.07	–	–	–	110	–	COc1cccc(OC)c1-c1ccc(C[C@H](NC(=O)[C@]2(C)CCN2S(=O)(=O)c2cc(Cl)cc(Cl)c2)C(=O)O)cc1
–	–	4090	–	0.6	382	85	COc1cccc(OC)c1-c1ccc(C[C@@H]2/N=C(/[C@@H]3CCN3S(=O)(=O)c3ccccc3)NCc3nccn3C2=O)cc1
–	0.28	65	–	0	81	–	COCCN/C(=N\[C@@H](Cc1ccc(-c2c(OC)cccc2OC)cc1)C(=O)O)[C@@H]1CCN1S(=O)(=O)c1ccccc1
3.7	0.21	120	–	0	64	–	COc1cccc(OC)c1-c1ccc(C[C@H](/N=C(\NCC(C)(C)C)[C@@H]2CCN2S(=O)(=O)c2ccccc2)C(=O)O)cc1
2.7	0.05	21	10.2	0.8	85	–	CN/C(=N\[C@@H](Cc1ccc(-c2c(OC)cccc2OC)cc1)C(=O)O)[C@@H]1CCN1S(=O)(=O)c1cc(Cl)cc(Cl)c1
–	0.1	19	–	0.2	61	–	COc1cccc(OC)c1-c1ccc(C[C@H](/N=C(\N)[C@@H]2CCN2S(=O)(=O)c2ccccc2)C(=O)O)cc1
3.2	58	–	–	3.3	86	–	COc1cccc(OC)c1-c1ccc(C[C@@H]2N=C([C@@H]3CCN3S(=O)(=O)c3ccccc3)NNC2=O)cc1
3.3	0.13	27	–	1.8	45	–	COc1cccc(OC)c1-c1ccc(C[C@H](/N=C(\NCC(F)(F)F)[C@@H]2CCN2S(=O)(=O)c2ccccc2)C(=O)O)cc1
2.8	0.15	35	–	–	–	–	COc1cccc(OC)c1-c1ccc(C[C@H](/N=C(\NCc2ccccn2)[C@@H]2CCN2S(=O)(=O)c2ccccc2)C(=O)O)cc1
4	0.08	–	–	–	102	–	COc1cccc(OC)c1-c1ccc(C[C@H](NC(=O)[C@@H]2CCN2S(=O)(=O)c2cc(Cl)cc(Cl)c2)C(=O)O)cc1

Compound	logD [1]	IC50 [2] [nM]	IC50 (Integrin alpha-4/beta-7) [nM]	pKa [3]	bioavailability [4] [%]	clearance [5] [mL/min/kg]	inhibition [6] [%]
COc1cccc(OC)c1-c1ccc(C[C@H](/N=C(\NCC2CCOOCC2)[C@@H]2CCN2S(=O)(=O)c2ccccc2)C(=O)O)cc1	2.6	0.28	43	–	0.6	67	–
